Data reported in ChEMBL document CHEMBL5550172 (Eur J Med Chem, 2024).

Key:
Histone deacetylase 1 = Histone deacetylase 1 (Homo sapiens, UniProt Q13547); assay: Inhibition of recombinant human HDAC1 using Ac-Val-Gly-(NAc)Lys-AMC as substrate incubated for 30 mins by fluorescence based assay
[1] = molecular target: T1, Protein deacetylase HDAC6 (Homo sapiens, UniProt Q9UBN7); assay: Inhibition of recombinant human HDAC6 using Ac-Val-Gly-(NAc)Lys-AMC as substrate incubated for 30 mins by fluorescence based assay
T1 sequence (Q9UBN7 whole entry): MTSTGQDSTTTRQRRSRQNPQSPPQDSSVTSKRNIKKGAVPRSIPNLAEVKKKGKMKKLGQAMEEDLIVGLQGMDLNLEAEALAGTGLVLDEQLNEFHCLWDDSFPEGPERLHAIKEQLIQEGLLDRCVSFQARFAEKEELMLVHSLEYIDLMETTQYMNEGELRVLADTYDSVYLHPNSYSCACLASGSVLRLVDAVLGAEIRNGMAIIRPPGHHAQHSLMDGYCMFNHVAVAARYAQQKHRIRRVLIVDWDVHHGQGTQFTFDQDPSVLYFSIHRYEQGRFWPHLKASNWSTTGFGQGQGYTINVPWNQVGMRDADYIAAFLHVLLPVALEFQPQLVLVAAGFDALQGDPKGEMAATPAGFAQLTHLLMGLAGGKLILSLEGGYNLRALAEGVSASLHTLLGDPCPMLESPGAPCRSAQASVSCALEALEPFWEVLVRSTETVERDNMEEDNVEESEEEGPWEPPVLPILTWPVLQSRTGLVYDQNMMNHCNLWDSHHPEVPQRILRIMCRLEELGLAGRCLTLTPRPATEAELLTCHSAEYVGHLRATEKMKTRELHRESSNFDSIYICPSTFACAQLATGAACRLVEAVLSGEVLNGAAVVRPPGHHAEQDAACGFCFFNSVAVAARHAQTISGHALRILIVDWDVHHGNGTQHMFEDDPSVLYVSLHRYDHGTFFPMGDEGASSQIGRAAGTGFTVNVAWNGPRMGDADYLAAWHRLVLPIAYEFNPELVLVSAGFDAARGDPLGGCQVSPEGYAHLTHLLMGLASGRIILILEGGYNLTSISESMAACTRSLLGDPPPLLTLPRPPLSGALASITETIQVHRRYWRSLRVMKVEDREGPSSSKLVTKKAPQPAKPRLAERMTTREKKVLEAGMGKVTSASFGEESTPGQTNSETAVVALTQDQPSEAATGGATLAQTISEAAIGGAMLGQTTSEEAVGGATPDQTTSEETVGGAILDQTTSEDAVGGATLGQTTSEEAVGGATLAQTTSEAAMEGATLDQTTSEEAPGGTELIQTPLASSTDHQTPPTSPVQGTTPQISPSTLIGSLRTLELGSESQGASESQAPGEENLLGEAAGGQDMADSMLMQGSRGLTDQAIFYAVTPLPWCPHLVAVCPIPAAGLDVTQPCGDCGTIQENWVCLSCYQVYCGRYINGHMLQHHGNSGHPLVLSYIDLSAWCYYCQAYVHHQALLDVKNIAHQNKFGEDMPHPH

MCF7 = assay: Antiproliferative activity against human MCF7 cells expressing ER assessed as inhibition of cell viability at high concentration incubated for 12 days with every 3 day treatment by Alamar blue staining based assay relative to control; type: functional; conditions: time 12 day

Chain of Histone deacetylase 1 (Q13547 whole entry): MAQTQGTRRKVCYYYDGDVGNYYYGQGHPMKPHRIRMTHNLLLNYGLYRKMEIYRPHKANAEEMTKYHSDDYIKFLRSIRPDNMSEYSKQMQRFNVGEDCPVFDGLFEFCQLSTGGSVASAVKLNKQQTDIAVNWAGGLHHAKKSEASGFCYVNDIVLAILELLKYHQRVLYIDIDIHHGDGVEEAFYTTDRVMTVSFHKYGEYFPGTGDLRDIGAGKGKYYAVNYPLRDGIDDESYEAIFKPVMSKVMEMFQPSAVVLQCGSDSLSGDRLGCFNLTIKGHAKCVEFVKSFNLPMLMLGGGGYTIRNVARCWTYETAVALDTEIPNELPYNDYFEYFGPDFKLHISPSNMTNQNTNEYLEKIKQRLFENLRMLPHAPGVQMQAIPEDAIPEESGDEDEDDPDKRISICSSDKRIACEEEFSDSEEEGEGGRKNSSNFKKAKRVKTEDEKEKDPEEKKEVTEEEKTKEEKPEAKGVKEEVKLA

Row | IC50 (Histone deacetylase 1) [nM] | IC50 [1] [nM] | SMILES | inhibition (INH) (MCF7) [%]
1 | 12 | 297 | O=C(CCCCCc1ccc(-c2sc3cc(O)ccc3c2C(=O)c2ccc(OCCN3CCCCC3)cc2)cc1)NO | 
2 | 389 | 123 | O=C(CCCCOc1ccc(-c2sc3cc(O)ccc3c2C(=O)c2ccc(OCCN3CCCCC3)cc2)cc1)NO | 
3 | 344 | 333 | O=C(CCCCCCc1ccc(-c2sc3cc(O)ccc3c2C(=O)c2ccc(OCCN3CCCCC3)cc2)cc1)NO | 
4 | 132 | 21 | O=C(CCCCCOc1ccc(-c2sc3cc(O)ccc3c2C(=O)c2ccc(OCCN3CCCCC3)cc2)cc1)NO | 
5 | 464 | 202 | O=C(CCc1ccc(-c2sc3cc(O)ccc3c2C(=O)c2ccc(OCCN3CCCCC3)cc2)cc1)NO | 100
6 | 5990 | 91 | O=C(CCCOc1ccc(-c2sc3cc(O)ccc3c2C(=O)c2ccc(OCCN3CCCCC3)cc2)cc1)NO | 100
7 | 257 | 221 | O=C(CCCCc1ccc(-c2sc3cc(O)ccc3c2C(=O)c2ccc(OCCN3CCCCC3)cc2)cc1)NO | 
